According to BindingDB's records for doi:10.1016/j.ejmech.2016.02.023 (Rhône-Poulenc Rorer, 2016):
pIC50: −log10 of the molar value.

Assay: Antagonist activity at CRTH2 receptor in human eosinophils by ESC assay

| pIC50 | Compound |
| --- | --- |
| 7.92 | Cc1c(CC(=O)O)c2ccncn2c1Cc1ccccc1S(=O)(=O)c1ccccc1 |
| 8.22 | COc1ccc(S(=O)(=O)c2ccc(F)cc2)c(Cc2c(C)c(CC(=O)O)c3ccncn23)c1 |
